Source: patent US8158636B2, “Compounds and methods for kinase modulation, and indications therefor” (Plexxikon Inc., priority 2008, dated 2012)

Legend:
Format in all cases: biochemical
Kit = Kit (Homo sapiens, UniProt P10721); test: Kinase activity assay, Kit; conditions: Table 1j; read-out: activity toward kinase Kit, IC50
From the text: (§1) Assays for the activity of kinases, including, but not limited to, Fms, Kit, B-Raf, B-Raf V600E, c-Raf-1, and TrkA are known in the art, for example as described in US Patent Publication Number US20070032519 and U.S. patent application Ser. No. 11/473,347 (see also, PCT publication WO2007002433), the disclosures of which are hereby incorporated by reference with respect to such assays.

B-Raf V600E = B-Raf V600E (Homo sapiens, UniProt P15056, V600E); test: Kinase activity assay, B-Raf V600E; conditions: Table 1c; read-out: activity toward kinase B-Raf V600E, IC50
From the text: as §1

A-Raf = molecular target: T1, A-Raf (Homo sapiens, UniProt P10398); test: Kinase activity assay, A-Raf; conditions: Table 1a; read-out: activity toward kinase A-Raf, IC50
T1 sequence (P10398 1-606): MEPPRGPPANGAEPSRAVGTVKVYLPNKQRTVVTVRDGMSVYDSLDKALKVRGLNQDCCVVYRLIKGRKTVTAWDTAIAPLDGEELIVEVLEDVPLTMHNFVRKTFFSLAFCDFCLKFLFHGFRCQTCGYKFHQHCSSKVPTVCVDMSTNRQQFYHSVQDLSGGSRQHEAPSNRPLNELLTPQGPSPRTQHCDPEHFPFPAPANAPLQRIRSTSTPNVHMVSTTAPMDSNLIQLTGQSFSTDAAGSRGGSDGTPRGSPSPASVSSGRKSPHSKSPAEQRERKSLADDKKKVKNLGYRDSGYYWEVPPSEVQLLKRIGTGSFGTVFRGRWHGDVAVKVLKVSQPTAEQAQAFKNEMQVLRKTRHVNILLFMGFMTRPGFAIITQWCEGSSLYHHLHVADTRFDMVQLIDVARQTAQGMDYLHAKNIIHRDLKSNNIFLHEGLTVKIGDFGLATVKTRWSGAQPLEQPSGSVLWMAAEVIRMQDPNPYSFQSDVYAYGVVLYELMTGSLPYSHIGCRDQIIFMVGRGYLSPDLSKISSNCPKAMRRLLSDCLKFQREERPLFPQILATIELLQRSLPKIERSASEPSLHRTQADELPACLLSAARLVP
From the text: as §1

TrkA = TrkA (Homo sapiens, UniProt P04629); test: Kinase activity assay, TrkA; conditions: Table 1m; read-out: activity toward kinase TrkA, IC50
From the text: as §1

Fms = Fms (Homo sapiens, UniProt P07333); test: Kinase activity assay, Fms; conditions: Table 1h; read-out: activity toward kinase Fms, IC50
From the text: as §1

Flt-1 = Flt-1 (Homo sapiens, UniProt P17948); test: Kinase activity assay, Flt-1; conditions: Table 1f; read-out: activity toward kinase Flt-1, IC50
From the text: as §1

Flt-3 = molecular target: T2, Flt-3 (Homo sapiens, UniProt P36888); test: Kinase activity assay, Flt-3; conditions: Table 1g; read-out: activity toward kinase Flt-3, IC50
T2 sequence (P36888 27-993): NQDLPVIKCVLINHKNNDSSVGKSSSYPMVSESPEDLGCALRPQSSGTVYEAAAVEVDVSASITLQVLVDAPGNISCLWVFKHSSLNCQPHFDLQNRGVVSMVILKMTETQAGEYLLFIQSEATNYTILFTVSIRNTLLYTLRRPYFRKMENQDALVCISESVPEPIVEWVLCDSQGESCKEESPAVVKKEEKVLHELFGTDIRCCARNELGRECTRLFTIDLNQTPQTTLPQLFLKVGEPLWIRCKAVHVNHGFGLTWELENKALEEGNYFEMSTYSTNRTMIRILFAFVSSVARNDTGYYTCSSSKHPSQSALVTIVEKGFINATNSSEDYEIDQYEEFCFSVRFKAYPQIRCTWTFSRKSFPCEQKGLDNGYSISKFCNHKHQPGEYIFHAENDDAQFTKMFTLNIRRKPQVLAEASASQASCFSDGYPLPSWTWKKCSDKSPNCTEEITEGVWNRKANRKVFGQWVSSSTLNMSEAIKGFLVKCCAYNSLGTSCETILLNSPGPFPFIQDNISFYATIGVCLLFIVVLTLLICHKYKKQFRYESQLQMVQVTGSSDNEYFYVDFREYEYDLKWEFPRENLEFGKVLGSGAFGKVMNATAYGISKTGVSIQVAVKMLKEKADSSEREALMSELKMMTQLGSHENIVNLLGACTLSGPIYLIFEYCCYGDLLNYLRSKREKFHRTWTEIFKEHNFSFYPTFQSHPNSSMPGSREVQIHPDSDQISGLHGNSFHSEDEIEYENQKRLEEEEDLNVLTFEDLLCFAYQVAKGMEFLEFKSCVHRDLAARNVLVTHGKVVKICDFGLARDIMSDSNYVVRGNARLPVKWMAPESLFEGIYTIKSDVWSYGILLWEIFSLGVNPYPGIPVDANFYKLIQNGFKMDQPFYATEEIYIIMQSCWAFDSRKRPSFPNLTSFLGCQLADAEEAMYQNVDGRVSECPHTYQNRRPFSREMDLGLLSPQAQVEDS
From the text: as §1

Kdr = Kdr (Homo sapiens, UniProt P35968); test: Kinase activity assay, Kdr; conditions: Table 1i; read-out: activity toward kinase Kdr, IC50
From the text: as §1

TEC = molecular target: T3, TEC (Homo sapiens, UniProt P42680); test: Kinase activity assay, TEC; conditions: Table 1l; read-out: activity toward kinase TEC, IC50
T3 sequence (P42680 1-631): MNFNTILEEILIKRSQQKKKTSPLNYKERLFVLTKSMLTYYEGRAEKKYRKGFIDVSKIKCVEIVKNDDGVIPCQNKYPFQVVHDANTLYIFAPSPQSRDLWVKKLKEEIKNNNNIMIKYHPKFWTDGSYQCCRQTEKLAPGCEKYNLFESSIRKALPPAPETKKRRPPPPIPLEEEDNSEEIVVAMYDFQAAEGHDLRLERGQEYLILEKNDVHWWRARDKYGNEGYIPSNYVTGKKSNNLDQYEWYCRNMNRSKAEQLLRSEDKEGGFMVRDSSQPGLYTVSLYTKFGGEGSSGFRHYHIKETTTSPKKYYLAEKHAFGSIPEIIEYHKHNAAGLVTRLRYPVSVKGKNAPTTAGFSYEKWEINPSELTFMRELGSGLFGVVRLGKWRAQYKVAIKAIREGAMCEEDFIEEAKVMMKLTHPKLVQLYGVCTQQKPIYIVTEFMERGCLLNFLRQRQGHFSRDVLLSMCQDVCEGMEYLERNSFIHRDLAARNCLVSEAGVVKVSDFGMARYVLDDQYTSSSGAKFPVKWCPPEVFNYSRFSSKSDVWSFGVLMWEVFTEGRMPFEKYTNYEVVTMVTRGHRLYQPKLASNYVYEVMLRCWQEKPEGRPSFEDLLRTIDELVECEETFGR
From the text: as §1

Src = Src (Homo sapiens, UniProt P12931); test: Kinase activity assay, Src; conditions: Table 1k; read-out: activity toward kinase Src, IC50
From the text: as §1

Btk = Btk (Homo sapiens, UniProt Q06187); test: Kinase activity assay, Btk; conditions: Table 1e; read-out: activity toward kinase Btk, IC50
From the text: as §1

C-Raf = C-Raf (Homo sapiens, UniProt P04049); test: Kinase activity assay, C-Raf; conditions: Table 1d; read-out: activity toward kinase C-Raf, IC50
From the text: as §1

B-Raf = B-Raf (Homo sapiens, UniProt P15056); test: Kinase activity assay, B-Raf; conditions: Table 1b; read-out: activity toward kinase B-Raf, IC50
From the text: as §1

Measured: IC50

Sequence of B-Raf V600E (P15056 whole entry V600E): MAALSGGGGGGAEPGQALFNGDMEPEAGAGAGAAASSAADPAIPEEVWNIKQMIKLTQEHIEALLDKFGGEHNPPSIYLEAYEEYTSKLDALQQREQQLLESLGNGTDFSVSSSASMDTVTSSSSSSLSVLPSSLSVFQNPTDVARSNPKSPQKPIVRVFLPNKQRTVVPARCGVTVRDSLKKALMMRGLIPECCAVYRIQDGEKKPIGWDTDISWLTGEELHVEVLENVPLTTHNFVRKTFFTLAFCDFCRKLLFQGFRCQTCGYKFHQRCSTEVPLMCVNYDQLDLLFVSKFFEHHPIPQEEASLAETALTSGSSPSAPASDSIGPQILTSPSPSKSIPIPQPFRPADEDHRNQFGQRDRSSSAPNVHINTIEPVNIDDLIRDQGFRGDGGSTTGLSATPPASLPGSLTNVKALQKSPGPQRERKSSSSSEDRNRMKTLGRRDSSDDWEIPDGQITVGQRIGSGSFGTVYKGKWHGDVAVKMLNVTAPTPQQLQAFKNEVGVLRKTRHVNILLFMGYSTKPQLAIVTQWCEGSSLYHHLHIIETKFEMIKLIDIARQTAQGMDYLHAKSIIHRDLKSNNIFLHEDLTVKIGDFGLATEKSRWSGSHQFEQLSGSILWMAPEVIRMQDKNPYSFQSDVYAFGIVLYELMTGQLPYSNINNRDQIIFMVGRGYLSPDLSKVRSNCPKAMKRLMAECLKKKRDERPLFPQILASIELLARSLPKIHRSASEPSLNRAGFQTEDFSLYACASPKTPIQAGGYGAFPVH
Sequence of Kdr (P35968 20-1356): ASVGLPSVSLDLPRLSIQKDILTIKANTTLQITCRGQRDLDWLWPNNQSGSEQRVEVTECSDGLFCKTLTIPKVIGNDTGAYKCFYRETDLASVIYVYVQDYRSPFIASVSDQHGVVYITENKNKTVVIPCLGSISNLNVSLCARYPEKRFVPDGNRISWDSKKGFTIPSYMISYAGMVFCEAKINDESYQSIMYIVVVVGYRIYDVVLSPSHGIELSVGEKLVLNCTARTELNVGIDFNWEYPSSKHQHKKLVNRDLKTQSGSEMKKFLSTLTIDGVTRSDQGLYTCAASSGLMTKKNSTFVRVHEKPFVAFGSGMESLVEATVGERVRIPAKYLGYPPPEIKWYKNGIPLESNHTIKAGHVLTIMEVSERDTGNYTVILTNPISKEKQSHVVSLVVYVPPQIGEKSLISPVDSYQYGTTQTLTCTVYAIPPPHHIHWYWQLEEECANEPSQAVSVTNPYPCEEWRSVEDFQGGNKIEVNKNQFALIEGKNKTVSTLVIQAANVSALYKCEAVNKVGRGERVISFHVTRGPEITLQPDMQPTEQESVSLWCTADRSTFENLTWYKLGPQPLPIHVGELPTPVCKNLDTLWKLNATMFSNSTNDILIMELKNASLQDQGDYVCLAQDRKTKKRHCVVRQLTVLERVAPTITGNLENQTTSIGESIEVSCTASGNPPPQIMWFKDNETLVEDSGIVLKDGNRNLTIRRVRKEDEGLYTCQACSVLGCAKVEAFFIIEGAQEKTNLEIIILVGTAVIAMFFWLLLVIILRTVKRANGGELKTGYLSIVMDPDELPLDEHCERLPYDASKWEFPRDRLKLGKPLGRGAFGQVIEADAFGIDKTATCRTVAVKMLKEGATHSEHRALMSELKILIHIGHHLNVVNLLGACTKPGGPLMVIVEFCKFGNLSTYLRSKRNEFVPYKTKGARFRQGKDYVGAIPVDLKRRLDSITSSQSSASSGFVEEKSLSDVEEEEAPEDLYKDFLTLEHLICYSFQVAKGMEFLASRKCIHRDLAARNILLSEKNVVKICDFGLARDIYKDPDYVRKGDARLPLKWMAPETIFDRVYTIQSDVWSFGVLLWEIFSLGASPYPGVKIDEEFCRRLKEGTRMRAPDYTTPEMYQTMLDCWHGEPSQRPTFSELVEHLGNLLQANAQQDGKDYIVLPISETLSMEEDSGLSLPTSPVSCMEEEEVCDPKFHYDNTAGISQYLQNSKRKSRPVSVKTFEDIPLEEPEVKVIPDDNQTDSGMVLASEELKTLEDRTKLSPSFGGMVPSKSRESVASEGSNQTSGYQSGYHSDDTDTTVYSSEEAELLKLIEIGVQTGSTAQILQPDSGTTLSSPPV
Sequence of Kit (P10721 26-976): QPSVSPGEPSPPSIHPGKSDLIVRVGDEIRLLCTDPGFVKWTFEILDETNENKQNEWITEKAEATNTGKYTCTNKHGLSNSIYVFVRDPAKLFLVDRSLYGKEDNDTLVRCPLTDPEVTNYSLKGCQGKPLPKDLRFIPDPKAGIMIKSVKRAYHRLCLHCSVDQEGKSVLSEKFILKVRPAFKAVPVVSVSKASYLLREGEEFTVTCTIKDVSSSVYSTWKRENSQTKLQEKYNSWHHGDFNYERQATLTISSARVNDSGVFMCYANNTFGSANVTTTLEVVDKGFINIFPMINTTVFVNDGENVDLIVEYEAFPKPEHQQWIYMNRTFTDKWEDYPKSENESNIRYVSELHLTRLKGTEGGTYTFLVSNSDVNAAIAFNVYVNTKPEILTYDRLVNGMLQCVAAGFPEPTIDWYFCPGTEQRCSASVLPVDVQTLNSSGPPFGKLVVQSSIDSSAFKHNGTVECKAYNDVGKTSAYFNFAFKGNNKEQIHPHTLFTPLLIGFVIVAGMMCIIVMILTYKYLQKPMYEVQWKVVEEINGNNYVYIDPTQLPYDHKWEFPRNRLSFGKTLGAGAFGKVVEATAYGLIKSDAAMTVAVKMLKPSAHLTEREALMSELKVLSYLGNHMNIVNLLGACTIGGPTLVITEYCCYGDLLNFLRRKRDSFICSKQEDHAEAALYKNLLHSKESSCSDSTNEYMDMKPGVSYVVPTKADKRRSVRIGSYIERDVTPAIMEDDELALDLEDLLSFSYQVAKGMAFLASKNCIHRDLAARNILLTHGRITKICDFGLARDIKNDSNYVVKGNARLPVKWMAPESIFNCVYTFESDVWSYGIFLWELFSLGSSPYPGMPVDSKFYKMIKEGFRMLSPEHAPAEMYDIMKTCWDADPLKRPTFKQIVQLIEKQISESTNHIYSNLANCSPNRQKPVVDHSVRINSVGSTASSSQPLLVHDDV
Sequence of TrkA (P04629 33-796): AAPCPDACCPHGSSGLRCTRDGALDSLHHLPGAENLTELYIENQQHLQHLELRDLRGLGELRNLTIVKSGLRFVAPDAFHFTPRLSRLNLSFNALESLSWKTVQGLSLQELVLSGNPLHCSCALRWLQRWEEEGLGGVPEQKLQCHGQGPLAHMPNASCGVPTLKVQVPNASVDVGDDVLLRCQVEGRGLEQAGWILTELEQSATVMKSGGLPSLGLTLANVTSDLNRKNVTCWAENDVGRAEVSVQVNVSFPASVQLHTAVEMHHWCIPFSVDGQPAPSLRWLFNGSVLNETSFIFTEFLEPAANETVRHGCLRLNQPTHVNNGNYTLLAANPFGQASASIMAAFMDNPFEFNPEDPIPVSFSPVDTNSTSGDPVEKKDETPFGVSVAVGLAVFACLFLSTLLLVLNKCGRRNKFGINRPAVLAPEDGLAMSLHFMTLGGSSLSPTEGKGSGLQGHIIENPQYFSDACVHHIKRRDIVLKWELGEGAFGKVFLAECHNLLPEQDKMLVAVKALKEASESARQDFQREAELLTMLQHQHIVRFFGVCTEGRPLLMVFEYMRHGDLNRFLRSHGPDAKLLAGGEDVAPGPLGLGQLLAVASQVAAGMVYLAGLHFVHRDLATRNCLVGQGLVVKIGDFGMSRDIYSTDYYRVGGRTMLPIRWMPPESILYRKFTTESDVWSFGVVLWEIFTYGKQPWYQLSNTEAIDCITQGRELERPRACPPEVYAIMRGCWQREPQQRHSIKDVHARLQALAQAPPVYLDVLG
Sequence of Flt-1 (P17948 27-1338): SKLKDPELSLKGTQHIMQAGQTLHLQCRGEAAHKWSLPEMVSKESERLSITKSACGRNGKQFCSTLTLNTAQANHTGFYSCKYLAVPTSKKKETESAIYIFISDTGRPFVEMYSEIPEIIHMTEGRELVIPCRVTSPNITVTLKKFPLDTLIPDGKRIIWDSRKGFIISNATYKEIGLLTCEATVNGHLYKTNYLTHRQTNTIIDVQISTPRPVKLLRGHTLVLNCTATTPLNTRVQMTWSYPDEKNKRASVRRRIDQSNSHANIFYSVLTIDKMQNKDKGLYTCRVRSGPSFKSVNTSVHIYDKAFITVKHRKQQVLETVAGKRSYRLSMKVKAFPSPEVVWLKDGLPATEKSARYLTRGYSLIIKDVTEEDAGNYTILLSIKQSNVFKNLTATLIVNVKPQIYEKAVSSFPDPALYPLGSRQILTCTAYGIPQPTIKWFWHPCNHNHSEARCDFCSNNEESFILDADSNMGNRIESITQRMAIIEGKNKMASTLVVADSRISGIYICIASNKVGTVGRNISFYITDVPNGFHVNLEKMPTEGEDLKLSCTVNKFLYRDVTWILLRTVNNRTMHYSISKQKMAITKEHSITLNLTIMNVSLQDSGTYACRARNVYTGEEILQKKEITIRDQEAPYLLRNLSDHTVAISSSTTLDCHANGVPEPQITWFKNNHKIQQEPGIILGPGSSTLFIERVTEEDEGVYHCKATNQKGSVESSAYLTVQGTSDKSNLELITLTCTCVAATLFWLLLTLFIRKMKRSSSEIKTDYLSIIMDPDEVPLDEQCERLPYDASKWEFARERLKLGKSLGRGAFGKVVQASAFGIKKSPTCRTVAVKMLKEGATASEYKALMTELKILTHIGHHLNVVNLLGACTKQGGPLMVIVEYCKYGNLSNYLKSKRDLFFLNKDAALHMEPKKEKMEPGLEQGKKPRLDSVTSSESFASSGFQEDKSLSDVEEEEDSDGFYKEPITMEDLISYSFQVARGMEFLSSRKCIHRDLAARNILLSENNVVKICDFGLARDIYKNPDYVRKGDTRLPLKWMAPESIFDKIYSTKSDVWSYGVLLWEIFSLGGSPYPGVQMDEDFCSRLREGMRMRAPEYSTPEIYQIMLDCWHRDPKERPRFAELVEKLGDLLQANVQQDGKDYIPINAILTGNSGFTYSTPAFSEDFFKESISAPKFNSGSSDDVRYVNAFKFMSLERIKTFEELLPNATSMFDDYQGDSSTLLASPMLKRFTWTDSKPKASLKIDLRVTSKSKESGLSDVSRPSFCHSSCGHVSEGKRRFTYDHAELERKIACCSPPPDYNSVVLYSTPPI

Clc1ccc(CNc2ccc(Cc3c[nH]c4ncncc34)cn2)cc1 [P-0001, (4-Chloro-benzyl)-[5-(7H-pyrrolo[2,3-d]pyrimidin-5-ylmethyl)-pyridin-2-yl]-amine]
not listed: Src | Btk | C-Raf | B-Raf
≤ 10 µM: all other assays above

Clc1ccccc1CNc1ccc(Cc2c[nH]c3ncncc23)cn1 [P-0003, (2-Chloro-benzyl)-[5-(7H-pyrrolo[2,3-d]pyrimidin-5-ylmethyl)-pyridin-2-yl]-amine]
not listed: Kdr | Src | Btk | C-Raf | B-Raf
≤ 10 µM: all other assays above

Fc1nc(NCc2ccc(Cl)cc2)ccc1Cc1c[nH]c2ncncc12 [P-0006, (4-Chloro-benzyl)-[6-fluoro-5-(7H-pyrrolo[2,3-d]pyrimidin-5-ylmethyl)-pyridin-2-yl]-amine]
not listed: TEC | Btk | C-Raf | B-Raf
≤ 10 µM: all other assays above

COc1ccc(CNc2ccc(Cc3c[nH]c4ncncc34)c(F)n2)cn1 [P-0009, [6-Fluoro-5-(7H-pyrrolo[2,3-d]pyrimidin-5-ylmethyl)-pyridin-2-yl]-(6-methoxy-pyridin-3-ylmethyl)-amine]
≤ 10 µM: Kit | B-Raf V600E | A-Raf | Btk | Fms | Flt-3 | Kdr

COc1ncnc2[nH]cc(Cc3ccc(NCc4ccc(C(F)(F)F)nc4)nc3F)c12 [P-0101, [6-Fluoro-5-(4-methoxy-7H-pyrrolo[2,3-d]pyrimidin-5-ylmethyl)-pyridin-2-yl]-(6-trifluoromethyl-pyridin-3-ylmethyl)-amine]
not listed: A-Raf | Flt-1 | Flt-3 | TEC | Src
≤ 10 µM: all other assays above
